Reference: patent US11974983B2 (Duke University, priority 2018, dated 2024)
Like-named read-outs stand apart in the source and are kept apart here.

What was measured:
[1] = tested on: ER+ HER2− advanced or metastatic breast cancer; test: Phase 2 clinical study, lasofoxifene versus fulvestrant; format: in vivo, postmenopausal women; settings: 5 mg once daily oral
Description: The design of the study is outlined in FIG. 26. The study is an open label, randomized, multicenter study. Full recruitment into study occurs within twelve to sixteen months, with another twelve months of follow up before the primary outcome measure is analyzed. Screening tests are performed within thirty days of enrollment. Subjects are treated until documented disease progression.
As a comparison, fulvestrant is given to the breast cancer patient at 500 mg by intramuscular injection on day 1, day 15, and day 29, and then once every month.
The inclusion criteria include: • 1. Postmenopausal women with: a. locally advanced or metastatic breast cancer with either measurable or non-measurable lesions, b. progression on an AI in combination with a CDK 4/6 inhibitor for advanced breast cancer; • 2. If possible, a biopsy of metastatic breast cancer tissue will be obtained to confirm ER^+ and HER2^− disease; • 3. At least one or more of the following ESR1 mutations: Y537S, Y537N, Y537C, D538G, L536, E380Q, or S463P assessed from […] in blood; • 4. Received one chemotherapy regimen in the neo-adjuvant or adjuvant setting prior to entry into the trial; • 5. ECOG performance score of 0 or 1.

[2] = cited from earlier work
[3] = tested on: MCF7 Y537S; test: Mammary intraductal (MIND) xenograft model, MCF7 Y537S; format: in vivo, NSG mice
Description: (§1) MCF7 cells were engineered with CRISPR/Cas9 to express ERα with Y537S and D538G mutations. To mimic the natural environment of infiltrating ductal ERα^+ breast cancers, NSG™ mice were injected, via the nipple in the inguinal mammary glands, with three MCF7 cell variants: wild type MCF7 cells (MCF7 WT), MCF7 cells expressing Y537S mutant ERα (MCF7 Y537S), and MCF7 cells expressing D538G mutant ERα (MCF7 D538G), respectively. Prior to injection, the MCF7 cells were labeled with a luciferase reporter to monitor tumor growth in vivo using a Xenogen IVIS imager. […] FIG. 4 summarizes the experimental design.

[4] = target: T1, ERα Y537S mutant LBD (Homo sapiens, UniProt P03372, C381S/C417S/C530S/Y537S); test: X-ray crystal structure of ligand-bound ERα Y537S mutant LBD
T1 construct: 6x-His-TEV (N, cleaved yes); made in house; host or cells: E. coli BL21(DE3)
T1 sequence (P03372 311-547 C381S/C417S/C530S/Y537S limits assumed): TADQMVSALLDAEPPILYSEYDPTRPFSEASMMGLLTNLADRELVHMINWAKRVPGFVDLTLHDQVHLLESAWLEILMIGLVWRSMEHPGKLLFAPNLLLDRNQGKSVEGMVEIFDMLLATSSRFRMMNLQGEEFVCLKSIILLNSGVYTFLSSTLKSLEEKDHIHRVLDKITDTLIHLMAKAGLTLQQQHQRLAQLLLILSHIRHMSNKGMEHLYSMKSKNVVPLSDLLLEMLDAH
Description: 6x-His-TEV-Estrogen receptor alpha ligand binding domain containing C381S, C417S, C530S with L536S or Y537S mutations were expressed in E. coli BL21(DE3). The L536S mutant stabilizes the wild-type antagonist conformation and Y537S is an activating somatic mutation that has been identified in patients with acquired hormone resistance. Both proteins were purified using Ni-NTA resin, the 6x-His tag was cleaved using tev protease, removed using Ni-NTA resin, and a final purification was performed by passing the protein over a size exclusion column. The main peak was concentrated to 10 mg/mL and flash frozen.
Hanging drop vapor diffusion was used to crystallize the complexes. The L536S-Laso (lasofoxifene-bound ERα wild-type LBD) complex formed clear hexagonal crystals in 25% PEG 8,000, 200 mM MgCl2, HEPES pH 7.5 after two weeks at room temperature. The Y537S-Laso (lasofoxifene-bound ERα Y537S mutant LBD) complex formed rectangular crystals in 20% PEG 3.35K, 200 mM MgCl2, HEPES pH 6.5 after one week at room temperature.
Crystals were cryo-protected in 25% glycerol in mother liquor and flash frozen in liquid nitrogen. All x-ray crystallographic data sets were collected at the Advanced Photon Source. The L536S-Laso complex diffracted to 1.8 Å and the Y537S-Laso complex diffracted to 2.1 Å by cc^1/2 over 50%. Phaser was used for molecular replacement with 5UFX as the model. […]

[5] = tested on: MCF7 cells stably expressing DOX-inducible ER Y537S; test: Dose response cell counting in MCF7 cells with DOX-inducible HA-tagged ER Y537S; format: cell-based; settings: for IC50: Homo sapiens, MCF7, 120 h, allele Y537S, cell count day 5, full medium
Description: MCF7 estrogen receptor alpha positive (ER^+) breast cancer cells were engineered to stably express doxycycline (DOX)-inducible hemagglutinin (HA)-tagged full length ER with ligand binding domain mutations Y537S and D538G. The introduction and expression of the mutants were confirmed by Sanger sequencing, RNA-sequencing, and western blot.
The dose response studies were performed in full medium conditions. Cells were treated with DOX for the induction of HA-tagged mutated ER or with vehicle as control, and plated in triplicate. Subsequently, on day 5, cell counting was performed using the Celigo instrument with Hoechst dye staining to detect nucleated live cells and propidium iodide to quantify dead cells.
IC50 values were calculated using PRISM.

[6] = tested on: MCF7 D538G; test: Mammary intraductal (MIND) xenograft model, MCF7 D538G; format: in vivo, NSG mice
Description: as §1

[7] = MCF7 Y537S, 5 mg/kg and 10 mg/kg, after 70 days

Q: What does the source list for `Oc1ccc2c(c1)CC[C@H](c1ccccc1)[C@@H]2c1ccc(OCCN2CCCC2)cc1` [Lasofoxifene, lasofoxifene]?
A: median PFS compared to fulvestrant ([1]; D538G mutant patient population): increases the median PFS; median PFS compared to fulvestrant ([1]; E380Q mutant patient population): increases the median PFS; median PFS compared to fulvestrant ([1]; ESR1 mutation population): increases the median PFS; median PFS compared to fulvestrant ([1]; L536 mutant patient population): increases the median PFS; median PFS compared to fulvestrant ([1]; S463P mutant patient population): increases the median PFS; median PFS compared to fulvestrant ([1]; Y537C mutant patient population): increases the median PFS; median PFS compared to fulvestrant ([1]; Y537N mutant patient population): increases the median PFS; median PFS compared to fulvestrant ([1]; Y537S mutant patient population): increases the median PFS; risk of breast cancer ([2]; PEARL trial, post-menopausal women with osteoporosis): reduced the risk of breast cancer; risk of osteoporosis ([2]; double-blind, placebo-controlled, randomized PEARL trial): reduce the risk of osteoporosis; tumor growth monitored by total flux ([3]; MCF7 Y537S mice, 10 mg/kg five times per week subcutaneous): most significantly inhibited; liver metastasis, compared to fulvestrant [3, 7]: significantly more effective in reducing liver metastasis; tumor weight, compared to fulvestrant [3, 7]: significantly more effective; tumor growth measured by tumor weight, compared to vehicle control ([3]; MCF7 Y537S, 10 mg/kg, after 70 days of treatment): significantly inhibited; tumor growth measured by tumor weight ([3]; MCF7 Y537S, all tested doses (1, 5, 10 mg/kg), after 70 days): significantly inhibited the growth of tumors at all tested doses; lung metastasis ([3]; MCF7 Y537S, lasofoxifene 5 mg/kg and 10 mg/kg, after 70 days): significantly reduce lung metastasis; loop between helix 11 and helix 12 in the crystal structure [4]: absent; IC50 ([5]; DOX-induced mutant ER, read-out: IC50 DOX (ESR mutation)): 4.1 nM; IC50 ([5]; no DOX, read-out: IC50 No DOX (wt only)): 0.36 nM; anti-estrogenic activity, cell killing with increasing dose titration ([5]; Y537S stable transfectants, 10^−12 M to 10^−6 M): kill the stably transfected cells; tumor growth monitored by total flux ([6]; MCF7 D538G mice, 10 mg/kg five times per week subcutaneous): most significantly inhibited; tumor weight, compared to fulvestrant ([6]; MCF7 D538G, 5 mg/kg and 10 mg/kg, after 70 days): significantly more effective; tumor growth measured by tumor weight, compared to vehicle control ([6]; MCF7 D538G, 10 mg/kg, after 70 days of treatment): significantly inhibited; liver metastasis ([6]; MCF7 D538G, all tested doses (1, 5, 10 mg/kg), after 70 days): effective in reducing liver metastasis at all tested doses
